Measurements as given in US20230061859A1, “PYRIDO[2,3-D]PYRIMIDINE HIV-1 REVERSE TRANSCRIPTASE INHIBITOR WB3, PREPARATION METHOD AND APPLICATION THEREOF” (SHAN DONG UNIVERSITY, priority 2020, published 2023).

How the values were obtained:
[1] = test system: HIV-1 mutant strain GH9 (K101P+K103N+V108I); assay: Anti-HIV activity, luciferase single-round infection of TZM-bl cells, GH9; assay type: cell-based; details: for EC50: Human immunodeficiency virus 1, TZM-bl, read-out: EC50 GH9
Procedure: (§1) The target compound WB3 was evaluated its activity against HIV-1 NL4-3, HIV-1 mutant strains GH9 (K101P+K103N+V108I), RV1 (K101E+Y181V), RV2 (K101E+Y181C+G190A), RV3 (K101E+Y181C+E138K), RV4 (L100I+M230I) and RV5 (M230L). Rilpivirine (RPV) was selected as control drug.
(§2) Inhibition of HIV-1 infection was measured as reduction in luciferase gene expression after a single round of virus infection of TZM-bl cells. Briefly, 200 TCID50 of virus (NL4-3, GH9, RV-1, RV-2, RV-3, RV-4 and RV-5) was used to infect TZM-bl cells in the presence of various concentrations of compounds. Two days after infection, the culture medium was removed from each well and 100 μL of Bright Glo reagent (Promega, Luis Obispo, Calif.) was added to the cells for measurement of luminescence with a Victor 2 luminometer. […] The cytotoxicity of compounds was determined using a colorimetric 2,3-bis-(2-methoxy-4-nitro-5-sulfophenyl)-2H-tetrazolium-5-carboxanilide (XTT) assay. An amount of 100 μL of the test compounds at graded concentrations was added to equal volumes of cells (5×10^5/mL) in wells of a 96-well plate. Incubation at 37° C. for four days, then 50 μL of XTT solution (1 mg/mL) containing 0.02 μM phenazine methosulfate (PMS) was added. After four hours, the absorbance at 450 nm was measured with an ELISA reader. The CC50 values were calculated using the CalsuSyn computer program as described above.

[2] = test system: HIV-1 mutant strain RV1 (K101E+Y181V); assay: Anti-HIV activity, luciferase single-round infection of TZM-bl cells, RV-1; assay type: cell-based; details: Human immunodeficiency virus 1, TZM-bl, read-out: EC50 RV-1
Procedure: as §1, §2

[3] = test system: HIV-1 mutant strain RV2 (K101E+Y181C+G190A); assay: Anti-HIV activity, luciferase single-round infection of TZM-bl cells, RV-2; assay type: cell-based; details: Human immunodeficiency virus 1, TZM-bl, read-out: EC50 RV-2
Procedure: as §1, §2

[4] = test system: HIV-1 NL4-3 (wild-type HIV-1 viral strain); assay: Anti-HIV activity, luciferase single-round infection of TZM-bl cells, NL4-3; assay type: cell-based; details: Human immunodeficiency virus 1, NL43, wild-type HIV-1 NL4-3
Procedure: as §1, §2

[5] = test system: HIV-1 mutant strain RV5 (M230L); assay: Anti-HIV activity, luciferase single-round infection of TZM-bl cells, RV-5; assay type: cell-based; details: Human immunodeficiency virus 1, TZM-bl, read-out: EC50 RV-5
Procedure: as §1, §2

[6] = test system: HIV-1 mutant strain RV3 (K101E+Y181C+E138K); assay: Anti-HIV activity, luciferase single-round infection of TZM-bl cells, RV-3; assay type: cell-based; details: Human immunodeficiency virus 1, TZM-bl, read-out: EC50 RV-3
Procedure: as §1, §2

Cytotoxicity, XTT assay = assay type: cell-based; details: human, mock-infected TZM-bl cells
Procedure: as §2

[7] = test system: HIV-1 mutant strain RV4 (L100I+M230I); assay: Anti-HIV activity, luciferase single-round infection of TZM-bl cells, RV-4; assay type: cell-based; details: Human immunodeficiency virus 1, TZM-bl, read-out: EC50 RV-4
Procedure: as §1, §2

[8] = Pharmacokinetics by single iv and po administration in Wistar rats; assay type: in vivo
Procedure: Then, WB3 was evaluated its pharmacokinetics profiles by single iv and po administration in Wistar rats. […] These favorable PK results are sufficient to support the ability of WB3 to become an orally bioavailable NNRTIs drug candidate.
All the samples were then centrifuged at 8000 rpm for 8 min to separate plasma, which was stored at −78° C. until analysis. […] Standard curves for WB3 in blood were generated by the addition of various concentrations of WB3 together with internal standard to blank plasma.
The plasma pharmacokinetic data were analyzed by using the […] of DAS 2.0 pharmacokinetic program. The main pharmacokinetic parameters (Cmax, AUC, Tmax, T1/2, and CL) were calculated.

SMILES | EC50 [1] | EC50 [2] | EC50 [3] | EC50 [4] | EC50 [5] | EC50 [6] | CC50 at 4 days (Cytotoxicity, XTT assay) | EC50 [7] | fold potency versus rilpivirine against GH9 ([1]; EC50 ratio to rilpivirine, GH9 strain) | CL ([8]; iv 2 mg/kg (Table 2)) | Cmax ([8]; male, rat, plasma, iv 2 mg/kg)
Cc1cc(/C=C/C#N)cc(C)c1Nc1ccnc(Nc2ccc(C#N)cc2)n1 [RPV, Rilpivirine, reference compound] | > 273 nM | 45.6 ± 12.6 nM | 24.3 ± 5.73 nM | 0.96 ± 0.3 nM | 10.4 ± 3.27 nM | 88.1 ± 37.4 nM | > 341 nM | 9.82 ± 2.35 nM | – | – | –
Cc1cc(/C=C/C#N)cc(C)c1Oc1nc(NC2CCN(Cc3ccc(S(C)(=O)=O)cc3)CC2)nc2ncccc12 [WB3] | 1.37 nM | 18.3 ± 5.8 nM | 29 ± 10.9 nM | 1.16 nM | 6.15 ± 2.29 nM | > 106 nM | > 44 nM | 9.32 ± 2.46 nM | up to 200 fold | 20.6 ± 4.50 mL | 1490 ng/mL
